One data set concerns HEK293T. Nature of the data set: MTT cell viability assay, HEK293T control. It is filed as cell-based. To be noted: Homo sapiens, HEK-293T, 293T control cells, 48 hrs, read-out: 50% growth inhibitory concentration (IC50). On the procedure:
(§1) 2. MTT assay: Post 6 h synchronization, 1×10^4 cells per well were incubated at 37° C. in 96-well plastic plates with test drugs containing 10% FBS in an environment of 5% humified CO2. After 48 hrs, cell viability was assessed by the ability of metabolically active cells to reduce tetrazolium salt […] to coloured formazan compounds. The absorbance of the samples was measured with a specific enzyme-linked immunosorbent assay (ELISA) reader at 560 nm.
(§2) To calculate 50% growth inhibitory concentration (IC50) of ormeloxifene, various myeloid leukemia cells (U937, HL60, K562) and HEK293T as control were assayed with different doses of ormeloxifene for cell viability in MTT Assay. […] Various apoptosis assays were performed in myeloid leukemia cells upon treatment with ormeloxifene that induces G0-G1 phase growth arrest and caspase mediated apoptosis in myeloid leukemia via ERK activation.

Data set [1] relates to primary cells isolated from CML patients. Description: FACS for cd11b and cd114 in primary mononuclear cells from CML patients. The data set is classed as cell-based, human. As to conditions: CML patient mononuclear cells, 1 uM ORM, 24 and 48 hr. How it is done: FIG. 6: ORM induces myeloid differentiation in primary cells isolated from CML patients PBMCs were isolated from patient samples and were analyzed by FACS for cd11b positive cells.
6. PBMC separation from patient sample: 10 ml peripheral blood was collected by venipuncture heparin-containing 20 ml vials. Peripheral blood mononuclear cells were isolated using density gradient centrifugation with Ficoll-Paque (1.077 g/ml). Peripheral blood was mixed in 1:1 v/v of MACS buffer and was fractionated through Ficoll-Paque. Mononuclear cells were collected from the interface, washed twice in MACS buffer and resuspended in RPMI 1640 at 37° C. in the humidified atmosphere of 5% CO2.
7. FACS analysis: Cells were treated with 1 uM ORM for 24 h and 48 h. Then they were washed with 1×PBS and resuspended in antibody solution along with their respective IgG isotype control for 15-20 min as per manufacturer's protocol. Cells were washed once with PBS and were resuspended in 500 ul of PBS. […]
Although recent studies using differentiation therapies in oncology have been successful for acute promyelocytic leukemia (APL) with the use of all-trans retinoic acid (ATRA) (S. Waxman, Leukemia, 2000, 14(3):491-496), little is known about exact mechanisms of differentiation. […] Cells were treated with 1 uM ORM and were analyzed for expression of cd11b and cd114 surface markers after 24 and 48 hr.

For data set [2], the system named is K562 cells. Nature of the data set: ROS generation by flow cytometry (DCF-DA), K562 cells. As to conditions: K562, 1 uM ORM. It is filed as cell-based. How it is done: FIG. 5: ORM at a dose of 1 uM induces ROS generation: A property of activated neutrophils: Flow cytometry analysis was performed for the ROS generation in K562 cells after treatment with 1 uM ORM for 24 h and 48 h. Cells were labeled with DCF-DA dye and fluorescence was measured.
Furthermore, ORM induces granulocytic differentiation in K562 cells, it should lead to terminal differentiation of these cells to activated neutrophils. To substantiate further the induction of granulocytic differentiation and neutrophil formation, we measured the ROS generation, which is a property of activated neutrophils by FACS flow cytometer.

The subject of data set [3] is K562 cells. Nature of the data set: Real time and semi quantitative PCR of differentiation markers, K562 cells. It is filed as cell-based. How it is done:
5. Quantitative PCR (Real Time) and semi quantitative PCR Analysis: After induction of cells with ORM for indicated time points cells were harvested and RNA was isolated using Trizol reagent. Trizol was added to 1×10^6 cells for 5 min at room temp. Lysed cells were collected in micro centrifuge tubes and shaken vigorously for 15 sec, and incubated for 3 min at RT. 200 μl of chloroform was added to each sample and incubated yet again for 5 min at RT. Cells were centrifuged at 15,000 rpm for 15 min at 4° C. Supernatant was collected in fresh tube; 1 ml isopropanol was added and incubated for 10 min at RT. Pellet was washed once with 70% ethanol and RNA concentration was quantified. Further, RNA was retro-transcribed into cDNA and subsequently used for quantitative PCR analysis on Roche Light Cycler 480 using SYBR green master mix from Applied Biosystems. Statistical analysis was performed using ΔΔCT method. Reverse transcriptase PCR was done to check the mRNA level expression of GCSFr qualitatively. RT-PCR analysis was performed using standardized PCR protocol on BioRad C1000 Thermal Cycler.

Data set [4] deals with HL60 cells. Nature of the data set: Morphology after long ORM treatment, HL60 cells. It is filed as cell-based. To be noted: HL60, 1 uM ORM, 12 and 15 days. On the procedure: (§3) FIG. 7: ORM at 1 uM dose induces differentiation like morphology both in HL60 and U937 cells: (a) HL60 and (b) U937 cells were treated with 1 uM ORM for 12 and 15 days and there was change in the morphology of cells by decrease in the nuclear and cytoplasmic ratio and formation of multilobed nuclei which is typical for neutrophilic differentiation.
(§4) 3. Giemsa staining: Giemsa stain is used to differentiate nuclear and cytoplasmic morphology of blood cells. After induction with 1 uM ORM for 12 days cells were cytospun on slides at 800 rpm for 5 min and were air dried. Cells were stained with Giemsa stain (Sigma) as per manufacturer's protocol. Cells were visualized microscopically for the morphological changes.
(§5) Profound granulocytic differentiation inducing property of ormeloxifene in K562 prompted us to investigate if ORM can also induce such differentiation in other myeloid leukemia cell lines. So we further chose HL60 and U937, a promyelocyte and myelomonocyte leukemia cell line. These cells differentiate to granulocyte lineage upon induction with all trans-retinoic acid (ATRA) and represent a very good model cell line for such differentiation assays. These cells were treated with 1 uM ORM for longer duration of 12 and 15 days followed by assessment of granulocytic/neutrophil like morphology.

The subject of data set [5] is HL60, U937 and K562 cells. To be noted: P. Pal et al., Proteomics 2011, read-out: IC50 inducing apoptosis; cited from earlier work.
The subject of another data set is Salmonella. As to conditions: Giri et al., Mutagenesis 1999; cited from earlier work.
In another data set the test system is advanced breast cancer. As to conditions: cited from earlier work.
Data set [6] has as its system K562 cells. Description: FACS flow cytometry for cd11b in K562 cells. To be noted: 24 and 48 h. The data set is classed as cell-based. How it is done:
7. FACS analysis: Cells were treated with 1 uM ORM for 24 h and 48 h. Then they were washed with 1×PBS and resuspended in antibody solution along with their respective IgG isotype control for 15-20 min as per manufacturer's protocol. Cells were washed once with PBS and were resuspended in 500 ul of PBS. After this flow cytometry was done for PI labeled cells for cd11b and cd114 differentiation markers (BD Biosciences).
(§6) K562 cells were treated with 1 μM (Subapoptotic dose) and 7.5 μM ORM (Apoptotic dose) for 24 h and 48 hrs. Post 24 h and 48 h treatment, cells were analyzed in FACS-flow cytometer for the presence of myeloid differentiation marker cd11b (FIG. 2). In parallel, HL60 cells were also treated with 1uM All-Trans-Retinoic Acid (ATRA) for 72 hrs which served as control for induction of differentiation. […] Isotype IgG-PE antibody served as negative control.
A general note: A flow cytometer gives signals particle by particle.

For data set [7], the system named is K562 cells. Description: Giemsa staining morphology, K562 cells. The data set is classed as cell-based. On the procedure: as §4
To further corroborate the differentiation inducing potential of ORM, K562 cells were again treated with 1.0 uM ORM and vehicle for 12 days followed by cytospin and staining with Giemsa for assessment of morphological changes. […] It is noteworthy to mention here that at higher doses (5 uM to 7.5 uM) there is early onset of myeloid differentiation (72 h for 5 uM and 24,48 h for 7.5 uM) with reduced no. of cells which is likely due to apoptotic effects of ORM at higher dose. In contrary, at lower doses (1 uM) differentiation is observed after longer duration (6-15 days) with quite reduced apoptotic effect.

The subject of data set [8] is K562 cells. Description: NBT reduction assay, K562 cells. It is filed as cell-based. As to conditions: K562, 7.5 uM ORM 24 h and 48 hrs, 1 uM 6 days. How it is done:
4. NBT assay: The NBT Assay relies on the accumulation of blue black formazan precipitate. The membrane permeable, water soluble, yellow NBT is reduced to blue black formazan by O^−2, which is generated by activated neutrophils/phagocytes, typically by PMA. PMA activates NADPH oxidase by enhancing protein kinase C (PKC) and thus stimulates production of ROS (reactive oxygen species). After induction with 7.5 uM ORM for 24 h and 48 hr and with 1 uM ORM for 6 days cells were incubated in NBT solution for 15 min. at 37° C. Cells were washed with PBS and were resuspended in 500 ul PBS and cytospun on slides and stained with safranin O for 1 min. Number of cells showing blue-purple colouration were counted under microscope.
In order to further confirm the ORM induced differentiation in myeloid leukemia cells, Nitro Blue Tetrazolium (NBT) reduction assay is carried out which is a biochemical assay wherein activated granulocytes can reduce NBT to insoluble purple blue colour precipitates. Further, because ORM induces apoptosis at 7.5 uM in K562 cells; we treated K562 cells with 7.5 uM for 24 h and 48 hrs and 1 uM doses for longer duration, 6 days. Cells were subjected for NBT reduction analysis. […] This further confirmed differentiation inducing potential of ORM.

In data set [9] the test system is myeloid leukemia cells (U937, HL60, K562). Description: MTT cell viability assay, myeloid leukemia cells. The data set is classed as cell-based. To be noted: leukemic cells (U937, HL60, K562), read-out: 50% growth inhibitory concentration (IC50). How it is done:
FIG. 1: ORM induces cell toxicity in myeloid leukemia cells: (a) Chemical structure of ormeloxifene. […] Assay was performed on 3 replicates for each treatment and repeated twice.
as §1, §2

The subject of the next data set is U937 cells. Description: Morphology after long ORM treatment, U937 cells. As to conditions: U937, 1 uM ORM, 12 and 15 days. It is filed as cell-based. On the procedure:
as §3, §4, §5

The test system of data set [10] is HL60 cells. Description: FACS flow cytometry for cd11b in HL60 cells (differentiation control). As to conditions: HL60, 1 uM ATRA, 72 hrs. The data set is classed as cell-based. On the procedure: as §6
[11] abbreviates: K562, 1 uM ORM, 24 and 48 h, real time PCR.

Read-outs that look alike come from different tables or passages of the source.

As for `COc1ccc2c(c1)OC(C)(C)C(c1ccccc1)C2c1ccc(OCCN2CCCC2)cc1` (stereo not drawn) [ORM, 3,4-trans-2,2-dimethyl-3-phenyl-4-p-(beta-pyrrolidinoethoxy)phenyl-7-methoxychroman], the IC50 is 25 µM with HEK293T, 7.5 µM in [5], roughly 7.5 µM in data set [9] (48 h) and roughly 7 µM in data set [9] (48 hrs). Further, the “expression of cd11b surface marker” value in data set [1] is on record as “significant upregulation”. Further, in data set [1], the “expression of cd114 surface marker” value is given as “significant upregulation”. Also, the ROS generation entry with K562 cells [2] was “Significant upregulation in ROS generation”. For the same compound, in the data set with K562 cells [3] (setting [11]), the “C/EBP epsilon mRNA expression” value is reported as “increased mRNA expression”. The “C/EBPalpha mRNA expression” value in the data set with K562 cells [3] (setting [11]) is reported as “increased mRNA expression”. Also, the “GCSFr mRNA expression” value with K562 cells [3] (setting [11]) is recorded as “increased mRNA expression”; with K562 cells [3] (K562, 7.5 uM ORM, 24 h and 48 h, quantitative and semi quantitative PCR), “modest upregulation”. Moreover, the “cd11b mRNA expression” value in the data set with K562 cells [3] (setting [11]) is listed as “increased mRNA expression”. The “level of GCSFr” value with K562 cells [3] (K562, Reverse transcriptase-PCR (FIG. 4f, g)) is “marked increase”. The granulocytic/neutrophil like morphology result in the data set on HL60 cells [4] and in the data set with U937 cells was “large number of cells with multilobed nucleus” each time. Besides, the “mutagenic effects of DMBA, CP, MMC and EMS” value in the data set on Salmonella is reported as “can reduce the mutagenic effects”. For the same compound, the overall response rate in the data set with advanced breast cancer (both male and female cases (4 male, 75 female)) is listed as 40.5%; with advanced breast cancer (female patients) it was 38.7%. Besides, the “cells expressing cd11b marker” value is “increased percentage of cells expressing CD11b markers” in the data set with K562 cells [6] (K562, 1.0 uM ORM) and “Reduced number of cd11b expressing cells” in the data set on K562 cells [6] (K562, 7.5 uM ORM). Moreover, the “morphological changes (Giemsa)” value in the data set on K562 cells [7] (K562, 1.0 uM ORM, 12 days) is recorded as “differentiated cells having neutrophil like morphology were observed”; in the data set with K562 cells [7] (K562, 5 uM ORM, 72 hrs), “neutrophil like morphological changes”. Further, the NBT reduction entry in the data set on K562 cells [8] is “dramatic increase in NBT reduction”.

For the compound `CC1=C(/C=C/C(C)=C/C=C/C(C)=C/C(=O)O)C(C)(C)CCC1` [ATRA, All-Trans-Retinoic Acid], the “cd11b early myeloid differentiation marker” value in the data set on HL60 cells [10] is listed as “increased”.

These data come from patent US9820968B2, “Anti-leukemic agent useful for inducing differentiation in myeloid leukemia cells” (Council of Scientific and Industrial Research, priority 2013, dated 2017).
